In a melting point compilation (Tetko et al.; mined from patent text by program, amines drawn as free bases though some values may be those of a salt):

| Structure (SMILES) | melting point [°C] |
| --- | --- |
| CCc1nccn1CCCNC(=O)c1ccc(Cl)cc1 | 120 to 122 |
| CSC1C(=O)Nc2ccc(C3=NNC(=O)SC3)cc21 (configuration not stated) | 201 to 204 |
| CC(C(=O)c1ccc(Cl)c(Cl)c1)C(O)C(=O)O (configuration not stated) | 103 to 104 |
| O=C(O)c1cc(N=Cc2ccccc2)ccc1O | 213 to 215 |
| O=C(O)C1Cc2c(cc(Cl)c3c(-c4ccccc4F)noc23)O1 (configuration not stated) | 191 to 193 |
| O=C1CCC(CCN2CCN(c3cc(C(F)(F)F)ccc3F)CC2)CC1 | 75 to 76 |
| O=C(Nc1ccccc1)Nc1cccc(-c2ccc(CC34CCCN3C(=O)N(c3cc(Cl)cc(Cl)c3)C4=O)cc2)c1 (configuration not stated) | 150 |
| COc1ccc(CCOc2ccnc(Cl)c2)cc1OC | 116 to 117 |
| Cc1c(Nc2c(I)cncc2C#N)ccc2[nH]ccc12 | 192 to 194 |
| Cc1cc(C)c2c(c1)OC(C)(COc1ccc([N+](=O)[O-])cc1)CC2=O (configuration not stated) | 86 to 88.5 |
| Cc1cc(OCC(O)CNC(C)(C)C)c2cc(C(N)=O)[nH]c2c1 (configuration not stated) | 213 to 214 |
| O=c1c2c(Cc3ccccc3C(F)(F)F)n[nH]c2c2cccnc2n1-c1ccccc1 | 292 to 294 |
| CCN1C(=O)Cc2cc3c(cc21)C(O)CO3 (configuration not stated) | 144 to 145 |
| CSc1nccc(-c2c(-c3ccc(F)cc3)ncn2C2CCN(C)CC2)n1 | 181 to 182 |
| NC(=O)c1ccc(N2CCN(CCCC3OCCc4ccccc43)CC2)cc1 (racemic) | 185 |
| CC12CCC3C(CC=C4C=C(N5CCCC5)CCC43C)C1CCC2=O (configuration not stated) | 217 to 220 |
| COC(CN(C)c1nccc(Oc2ccc(NC(=O)c3cc(F)cc(N4CCCCC4)c3)c3ccccc23)n1)OC | 135 to 136 |
| O=C(/C=C/c1cccc(Br)c1)NC1CC1 | 110 to 111 |
| N#Cc1c(Cl)cccc1CSCCNC(=O)c1c(Cl)cccc1Cl | 166 to 168 |
| CC(NC(=O)[C@@H](N)C(C)C)c1cc2ccccc2s1 (some centres not stated) | 70 to 71 |
| c1csc(-c2nc3cnccc3[nH]2)c1 | 265 to 268 |
| CCOC(=O)C(Cc1ccc(C(=O)C(C)(C)C)cc1)(Cc1ccc(C(=O)C(C)(C)C)cc1)C(=O)OCC | 65 to 67 |
| CN(C)Cc1ccc(CSCCNC(=C[N+](=O)[O-])NCCSCc2ccc(CN(C)C)o2)o1 | 58 to 62 |
| Cc1cccc(Nc2cc(Nc3cccc(OCCCN(C)C)c3)ncn2)c1 | 142 to 144 |
| CC(=O)N1CCNC1=Nc1ccc(Cl)cc1Cl | 168 to 169 |

| Structure (SMILES) | melting point [°C] |
| --- | --- |
| CC(c1ccc(F)c(F)c1F)n1ncc(-c2ccc(S(N)(=O)=O)cc2)c(-c2ccc(F)cc2)c1=O (configuration not stated) | 192 to 194 |
| CCOC(=O)c1cn(C)c2nc3c(F)c(F)c(F)cc3cc2c1=O | 320 |
| NC(=O)c1ncn(C2OC(CO)C(O)C2O)c1C#Cc1ccccc1 (configuration not stated) | 168 to 169 |
| CN(Cc1cc2c3c(c1)c(=O)c(C(=O)NCc1ccc(F)cc1)cn3CC(=O)N2C)C[C@@H](O)c1cc2ccccc2o1 | 94 to 96 |
| O=C(SCCC(=O)N1CCC[C@H]1C(=O)O)c1ccccc1 | 101 to 102 |
| COc1ccc(CCC(=NNc2ccc(C3=NNC(=O)CC3C)cc2)c2ccc(O)cc2O)cc1OC (configuration not stated) | 135 to 140 |
| COC1C(CO)OC(n2cnc3c(N)ncnc32)C1(C)O (configuration not stated) | 180 |
| NC(=O)CNC(=O)c1cc2c(Oc3ccc(Cl)cc3)cncc2s1 | 222 to 225 |
| COc1cc(CSc2ccc(O)cc2)cc(O)c1O | 140 |
| O=[N+]([O-])c1cc(OCC2=CCCSC2)c(Cl)cc1F | 91 to 94 |
| CNc1cc(N2CCN(C(=O)N3CCN(S(=O)(=O)c4ccc(Br)cc4)CC3)CC2)ncn1 | 219 to 221 |
| O=C1CSc2cccc(Cl)c2N1 | 160 to 161 |
| NC(=O)c1ccc([N+](=O)[O-])cc1[N+](=O)[O-] | 202 to 204 |
| Cc1cc(C)c(NC(=O)N(Cc2ccccc2)CC2(c3ccccc3)CCCC2)c(C)c1 | 212 to 214 |
| C=CCOC(=O)[C@@H]1CC[C@@H]2CN1C(=O)N2OCc1ccccc1 | 60 to 62 |
| COc1ccc(CN(Cc2ccc(OC)cc2)c2nccc(-c3ccc(-c4ccc(N(c5ccccc5)c5ccccc5)cc4)cc3)n2)cc1 | 95 to 97 |
| CCCn1c(=O)c2[nH]c(/C=C/c3cccc(Cl)c3)nc2n(CCC)c1=O | 259 |
| CS(=O)(=O)Nc1cc(C(c2cc(F)ccc2F)S(=O)(=O)c2ccc(F)c(F)c2)c(Cl)cn1 (configuration not stated) | 118 to 120 |
| CC(=O)c1ccc(OC(C)(C)C(=O)O)c(Cl)c1 | 123 to 125 |
| COc1nccnc1OCC(O)CN1CCC(N2CCc3ccccc3C2=O)CC1 (configuration not stated) | 167 to 169 |
| O=C(c1ccc(OCc2ccccc2)cc1)c1ccc(OCc2ccccc2)cc1 | 188 to 190 |
| CCCCCOc1ccc(CC(C)C(=O)Oc2ccc(-c3ccc(CCC)cc3)cc2)cc1 (configuration not stated) | 84 to 84.5 |
| ClCCOc1ccc(OCCCl)c(Cl)c1 | 135 to 137 |
| CCOC(=O)Cn1c(=O)n(Cc2ccc(Cl)cc2)c(=O)c2c(C)c(C)sc21 | 151 to 152 |
| C[C@H]1C(=O)C[C@@H]2C[C@H]1OO[C@@]2(C)C=O | 92 |

| Structure (SMILES) | melting point [°C] |
| --- | --- |
| C#CCn1ccc(CO)c1C(F)(F)F | 63 |
| Cc1ccc2cccc(OCc3c(Cl)ccc(S(=O)(=O)NC(C)(C)C)c3Cl)c2n1 | 191 |
| CCOC(=O)CONC(=S)Nc1cc(Cl)ccc1C | 117 to 119 |
| C1=C(c2ccc3c(c2)OCO3)CCC2(C1)OCCO2 | 75 to 76 |
| COc1ccc2cccc(C(CO)CNC(=O)C(F)(F)F)c2c1 (configuration not stated) | 138 to 140 |
| CN1C(=O)C(=O)c2cc(I)ccc21 | 160 to 162 |
| Cc1nnc2n1-c1ccccc1NC2C (configuration not stated) | 172 to 173 |
| CC(c1ccc(C(F)(F)F)nc1)S(C)=NC#N (configuration not stated) | 78 to 80 |
| CCOCc1nc2c(N)nc3ccccc3c2n1CCCC(N)=O | 233 to 235 |
| CCn1cc(C(C)=O)c(=O)c2ccc(-c3ccncc3)cc21 | 231 to 233 |
| Cn1c(COc2ccc(CC3SC(=O)NC3=O)cc2)nc2ccc(Oc3ccc(NC(=O)c4cc(C(C)(C)C)c(O)c(C(C)(C)C)c4)cc3)cc21 (configuration not stated) | 160 to 162 |
| Cc1ccc(F)c2c1N(CC(=O)Nc1ccccc1F)C(=O)C21COc2cc3c(cc21)CCO3 (configuration not stated) | 250 to 255 |
| N#Cc1ncn2c1[C@@H]1CCCN1C(=O)c1c(Br)cccc1-2 | 253 to 254 |
| C=CCSc1ccc(Oc2cccc(C)c2)nn1 | 48 to 50 |
| CCOC(=O)c1cc(CC)sc1Nc1ccc(Cl)cc1[N+](=O)[O-] | 75 to 76.5 |
| CCN1c2ncc(N)cc2C(=O)N(C)c2cccnc21 | 189 to 191 |
| CCCc1c(OCCCSc2ccc(CC(=O)O)cc2Cl)ccc2c(-c3ccccc3)coc12 | 143 |
| COc1ccc(N2CNC(=O)C23CCN(CCCN(c2ccccc2)c2ccccc2)CC3)cc1 | 156 to 158 |
| Cc1cc(C(=S)NCc2ccc(Br)cc2F)c(OCC(=O)O)cc1F | 162 to 164 |
| CC1(C)Oc2c(cc(Cl)c3oc(C(=O)O)cc(=O)c23)-c2ccc([N+](=O)[O-])cc21 | 278 to 279 |
| CC1(C)[C@@H](CNC(=O)c2ccccc2F)CC[C@@]1(C)NCC(=O)N1C[C@@H](F)C[C@H]1C#N | 123 to 127 |
| CCCN(CCO)C(=O)c1ccc(C(=O)N2CCN(c3ncccc3NC(C)C)CC2)cc1 | 79 to 82 |
| COc1c(N2CC[C@@H](O)[C@H](C)C2)c(F)c(N)c2c(=O)c(C(=O)O)cn(C3CC3)c12 (relative stereo) | 240 to 244 |
| CC(C)(C)OC(=O)CCON=C(C(=O)O)c1ccco1 | 74.7 to 77.2 |
| CCOC(=O)CCc1coc2c(O[Si](C)(C)C(C)(C)C)c3ccccc3c(C)c12 | 92.4 to 93.5 |

| Structure (SMILES) | melting point [°C] |
| --- | --- |
| CCC1(Br)Cc2c(Cl)ccc(OCC(=O)O)c2C1=O (configuration not stated) | 136 to 146 |
| NC(=O)c1csc(-c2cc3c(Oc4ccc(Cl)cc4)cncc3s2)n1 | 215 to 218 |
| Cc1c(NC(=O)CC(C)(C)C)c(C)c2c(c1-c1cncnc1)OCC2c1ccc(C(C)C)cc1 (configuration not stated) | 167 to 169 |
| Cc1ccc(-c2cccc(/C=C/C(=O)Nc3ccc(CN4CCCCC4CCO)cc3)c2)cc1 (configuration not stated) | 142 to 143 |
| O=C(CCCCC(=O)c1ccc(F)cc1)c1ccc(F)cc1 | 165 to 167 |
| O=C(NCc1ccccn1)c1cc(N2CCN(Cc3ccc(F)cc3)C2=O)n[nH]1 | 235 to 237 |
| O=[N+]([O-])c1ccc(-c2nn(-c3ccccc3)cc2CO)o1 | 148 to 149 |
| CC(C)=NOCC(=O)O | 76 |
| CC(C)(C)C1Cn2c(nc3ccccc32)-c2ccccc2O1 (configuration not stated) | 149 to 150 |
| Cc1oc(-c2ccc(S(C)(=O)=O)cc2)c(Oc2ccc(F)cc2F)c(=O)c1Cl | 210 |
| CCNCC1CCN(c2c(F)cc3c(=O)c(C(=O)O)cn(C4CC4)c3c2OC)C1 (configuration not stated) | 217 to 219 |
| Nc1c(F)c(N2CCC(c3ccncc3)C2)c(F)c2c1c(=O)c(C(=O)O)cn2C1CC1 (configuration not stated) | 236 to 238 |
| CN(C(N)=S)c1ccc(-c2ncn(-c3ccc(OC(F)(F)F)cc3)n2)cc1 | 142 to 152 |
| C(=C\c1nc2ccccc2n1-c1cccnc1)/c1ccccc1 | 118 |
| CCOC(=O)c1cnn(-c2cc(Cl)cc(Cl)c2)c1C#N | 101 to 103 |
| CC(C)SC(Cc1ccc(OCCN(C)c2nc3ccccc3o2)cc1)C(=O)O (configuration not stated) | 144 to 145 |
| CN(c1ccc2c(c1)S(=O)(=O)C=C(c1c(O)c3cc(F)ccc3n(CCC3CC3)c1=O)N2)S(C)(=O)=O | 208 to 212 |
| CCCCCCCCCCCCCCCCOCC(COC(c1ccccc1)(c1ccccc1)c1ccccc1)COS(C)(=O)=O (configuration not stated) | 39 |
| CCCCc1ncc(/C=C(\Cc2ccc(N)cc2)C(=O)O)n1Cc1ccccc1Cl | 191 to 192 |
| CNC(=O)Oc1ccc(N=Cc2ccccc2O)c2c1OC(C)(C)C2 | 201 to 203 |
| CSc1nc(NS(=O)(=O)c2ccc(C(C)(C)C)cc2)c(-c2ccc(C)cc2)c(OCCOCc2ccccc2)n1 | 115 to 116 |
| O=c1[nH]c2ccccc2n1CCCN1CCC(n2c(=S)[nH]c3ccccc32)CC1 | 248 |
